# In patent US20240050428A1 (Cullgen (Shanghai), Inc., priority 2020, published 2024):
# Read-outs that look alike come from different tables or passages of the source.
# Experiments:
# [1] = system: MV4;11 cells; test: Cell viability assay (CellTiter-Glo) in MV4;11 cells, alone or with gilteritinib; assay type: cell-based; conditions: Homo sapiens, MV4;11 cells, three days, CellTiter-Glo, read-out: MV4
# [2] = system: MOLM-13 cells; test: Cell viability assay (CellTiter-Glo) in MOLM-13 cells, alone or with gilteritinib; assay type: cell-based; conditions: Homo sapiens, MOLM-13 cells, three days, CellTiter-Glo
# [3] = MV4-11, 72 h, compound alone (without gilteritinib), 11 IC50
# [4] = MV4-11, 72 h, with gilteritinib 10 nM, 11 IC50 gilteritinib
# [5] = MOLM-13, 72 h, compound alone (without gilteritinib), read-out: MOLM-13 IC50
# [6] = MOLM-13, 72 h, with gilteritinib 20 nM, read-out: MOLM-13 IC50 gilteritinib
# [7] = 72 h, compound alone (without gilteritinib), 11 IC50
# [8] = 72 h, with gilteritinib 10 nM, 11 IC50 gilteritinib
# [9] = 72 h, compound alone (without gilteritinib), read-out: MOLM-13 IC50
# [10] = 72 h, with gilteritinib 20 nM, read-out: MOLM-13 IC50 gilteritinib
Structure (SMILES),"IC50 [1, 3] [nM]","IC50 [1, 4] [nM]","IC50 [2, 5] [nM]","IC50 [2, 6] [nM]","IC50 [1, 7] [nM]","IC50 [1, 8] [nM]","IC50 [2, 9] [nM]","IC50 [2, 10] [nM]"
"O=C1CCC(N2Cc3ccc(CCCCCCC(=O)N4CCC(n5cc(-c6ccc7ccccc7n6)cn5)CC4)cc3C2=O)C(=O)N1 (centres unmarked) [GS-098, 3-(1-Oxo-6-(7-oxo-7-(4-(4-(quinolin-2-yl)-1H-pyrazol-1-yl)piperidin-1-yl)heptyl)isoindolin-2-yl)piperidine-2,6-dione]",10 to 100,10 to 100,100 to 1000,< 10,,,,
"O=C1CCC(N2Cc3ccc(CCCCCCC(=O)N4CCC(c5ccccc5)CC4)cc3C2=O)C(=O)N1 (centres unmarked) [GS-099, 3-(1-Oxo-6-(7-oxo-7-(4-phenylpiperidin-1-yl)heptyl)isoindolin-2-yl)piperidine-2,6-dione]",,,,,100 to 1000,10 to 100,100 to 1000,10 to 100
"O=C1CCC(N2C(=O)c3ccc(NCCC4CCC(n5cc(-c6cnc7ccccc7n6)cn5)CC4)cc3C2=O)C(=O)N1 (centres unmarked) [GS-100, 2-(2,6-Dioxopiperidin-3-yl)-5-((2-(4-(4-(quinoxalin-2-yl)-1H-pyrazol-1-yl)cyclohexyl)ethyl)amino)isoindoline-1,3-dione]",> 1000,> 1000,> 1000,100 to 1000,,,,
"O=C1CCC(N2Cc3ccc(CCCCCC(=O)N4CCC(n5cc(-c6cnc7ccccc7n6)cn5)CC4)cc3C2=O)C(=O)N1 (centres unmarked) [GS-101, 3-(1-Oxo-6-(6-oxo-6-(4-(4-(quinoxalin-2-yl)-1H-pyrazol-1-yl)piperidin-1-yl)hexyl)isoindolin-2-yl)piperidine-2,6-dione]",< 10,< 10,10 to 100,< 10,,,,
"O=C1CCC(N2Cc3ccc(CCCCCC(=O)N4CCC(n5cc(-c6ccc7ccccc7n6)cn5)CC4)cc3C2=O)C(=O)N1 (centres unmarked) [GS-102, 3-(1-Oxo-6-(6-oxo-6-(4-(4-(quinolin-2-yl)-1H-pyrazol-1-yl)piperidin-1-yl)hexyl)isoindolin-2-yl)piperidine-2,6-dione]",10 to 100,< 10,100 to 1000,10 to 100,,,,
"O=C1CCC(N2Cc3ccc(CCCCCC(=O)N4CCN(c5ccccn5)CC4)cc3C2=O)C(=O)N1 (centres unmarked) [GS-103, 3-(1-Oxo-6-(6-oxo-6-(4-(pyridin-2-yl)piperazin-1-yl)hexyl)isoindolin-2-yl)piperidine-2,6-dione]",,,,,> 1000,100 to 1000,> 1000,100 to 1000
"O=C1CCC(N2Cc3ccc(CCCCCC(=O)N4CCC(c5ccccn5)CC4)cc3C2=O)C(=O)N1 (centres unmarked) [GS-104, 3-(1-Oxo-6-(6-oxo-6-(4-(pyridin-2-yl)piperidin-1-yl)hexyl)isoindolin-2-yl)piperidine-2,6-dione]",100 to 1000,100 to 1000,> 1000,100 to 1000,,,,
"O=C1CCC(N2Cc3ccc(CCCCCCCn4cc(-c5cnc6ccccc6n5)cn4)cc3C2=O)C(=O)N1 (centres unmarked) [GS-105, 3-(1-Oxo-6-(7-(4-(quinoxalin-2-yl)-1H-pyrazol-1-yl)heptyl)isoindolin-2-yl)piperidine-2,6-dione]",10 to 100,10 to 100,10 to 100,< 10,,,,
"O=C1CCC(N2Cc3ccc(CCCCCCn4cc(-c5cnc6ccccc6n5)cn4)cc3C2=O)C(=O)N1 (centres unmarked) [GS-106, 3-(1-Oxo-6-(6-(4-(quinoxalin-2-yl)-1H-pyrazol-1-yl)hexyl)isoindolin-2-yl)piperidine-2,6-dione]",100 to 1000,10 to 100,> 1000,10 to 100,,,,
"O=C1CCC(N2C(=O)c3ccc(NCCCC4CC(n5cc(-c6cnc7ccccc7n6)cn5)C4)cc3C2=O)C(=O)N1 (centres unmarked) [GS-107, 2-(2,6-Dioxopiperidin-3-yl)-5-((3-(3-(4-(quinoxalin-2-yl)-1H-pyrazol-1-yl)cyclobutyl)propyl)amino)isoindoline-1,3-dione]",100 to 1000,10 to 100,> 1000,10 to 100,,,,
"O=C1CCC(N2Cc3c(OCc4ccc(CN5CCC(n6cc(-c7cnc8ccccc8n7)cn6)CC5)cc4)cccc3C2=O)C(=O)N1 (centres unmarked) [GS-108, 3-(1-Oxo-4-((4-((4-(4-(quinoxalin-2-yl)-1H-pyrazol-1-yl)piperidin-1-yl)methyl)benzyl)oxy)isoindolin-2-yl)piperidine-2,6-dione]",> 1000,100 to 1000,> 1000,10 to 100,,,,
"O=C(CC1CC1n1cc(-c2cnc3ccccc3n2)cn1)NCc1ccc2c(c1)CN(C1CCC(=O)NC1=O)C2=O (centres unmarked) [GS-109, N-((2-(2,6-Dioxopiperidin-3-yl)-1-oxoisoindolin-5-yl)methyl)-2-(2-(4-(quinoxalin-2-yl)-1H-pyrazol-1-yl)cyclopropyl)acetamide]",100 to 1000,100 to 1000,> 1000,100 to 1000,,,,
"O=C1CCC(N2Cc3c(NC4CCCC(Nc5cccc(N6CCC(n7cc(-c8cnc9ccccc9n8)cn7)CC6)c5)C4)cccc3C2=O)C(=O)N1 (centres unmarked) [GS-110, 3-(1-Oxo-4-((3-((3-(4-(4-(quinoxalin-2-yl)-1H-pyrazol-1-yl)piperidin-1-yl)phenyl)amino)cyclohexyl)amino)isoindolin-2-yl)piperidine-2,6-dione]",< 10,< 10,10 to 100,< 10,,,,
"O=C1CCC(N2Cc3ccc(CCCCCCC(=O)N4CCC(c5ccccn5)CC4)cc3C2=O)C(=O)N1 (centres unmarked) [GS-111, 3-(1-Oxo-6-(7-oxo-7-(4-(pyridin-2-yl)piperidin-1-yl)heptyl)isoindolin-2-yl)piperidine-2,6-dione]",100 to 1000,10 to 100,> 1000,100 to 1000,,,,
"O=C1CCC(N2C(=O)c3ccc(NCCCC4CCCC(n5cc(-c6cnc7ccccc7n6)cn5)C4)cc3C2=O)C(=O)N1 (centres unmarked) [GS-112, 2-(2,6-Dioxopiperidin-3-yl)-5-((3-(3-(4-(quinoxalin-2-yl)-1H-pyrazol-1-yl)cyclohexyl)propyl)amino)isoindoline-1,3-dione]",> 1000,100 to 1000,> 1000,100 to 1000,,,,
"O=C1CCC(N2Cc3ccc(CCCCCC(=O)N4CCC(c5cccc(Cl)c5)CC4)cc3C2=O)C(=O)N1 (centres unmarked) [GS-113, 3-(6-(6-(4-(3-Chlorophenyl)piperidin-1-yl)-6-oxohexyl)-1-oxoisoindolin-2-yl)piperidine-2,6-dione]",10 to 100,< 10,> 1000,10 to 100,,,,
"O=C1CCC(N2Cc3ccc(CCCCCC(=O)N4CCC(c5ccc(Cl)cc5)CC4)cc3C2=O)C(=O)N1 (centres unmarked) [GS-114, 3-(6-(6-(4-(4-Chlorophenyl)piperidin-1-yl)-6-oxohexyl)-1-oxoisoindolin-2-yl)piperidine-2,6-dione]",,,,,100 to 1000,10 to 100,100 to 1000,10 to 100
"O=C1CCC(N2Cc3ccc(CCCCCCC(=O)N4CCC(c5cccc(Cl)c5)CC4)cc3C2=O)C(=O)N1 (centres unmarked) [GS-115, 3-(6-(7-(4-(3-Chlorophenyl)piperidin-1-yl)-7-oxoheptyl)-1-oxoisoindolin-2-yl)piperidine-2,6-dione]",100 to 1000,10 to 100,10 to 100,< 10,,,,
"O=C1CCC(N2Cc3ccc(CCCCCCC(=O)N4CCC(c5ccc(Cl)cc5)CC4)cc3C2=O)C(=O)N1 (centres unmarked) [GS-116, 3-(6-(7-(4-(4-Chlorophenyl)piperidin-1-yl)-7-oxoheptyl)-1-oxoisoindolin-2-yl)piperidine-2,6-dione]",,,,,10 to 100,< 10,100 to 1000,< 10
"O=C1CCC(N2C(=O)c3ccc(NCCc4ccc(-n5cc(-c6cnc7ccccc7n6)cn5)cc4)cc3C2=O)C(=O)N1 (centres unmarked) [GS-117, 2-(2,6-Dioxopiperidin-3-yl)-5-((4-(4-(quinoxalin-2-yl)-1H-pyrazol-1-yl)phenethyl)amino)isoindoline-1,3-dione]",> 1000,100 to 1000,> 1000,100 to 1000,,,,
"O=C1CCC(N2C(=O)c3ccc(NCCNCC4CC4n4cc(-c5cnc6ccccc6n5)cn4)cc3C2=O)C(=O)N1 (centres unmarked) [GS-118, 2-(2,6-Dioxopiperidin-3-yl)-5-((2-(((2-(4-(quinoxalin-2-yl)-1H-pyrazol-1-yl)cyclopropyl)methyl)amino)ethyl)amino)isoindoline-1,3-dione]",> 1000,> 1000,10 to 100,< 10,,,,
"O=C1CCC(N2Cc3c(NC4CCCC(Nc5ccnc(N6CCC(n7cc(-c8cnc9ccccc9n8)cn7)CC6)n5)C4)cccc3C2=O)C(=O)N1 (centres unmarked) [GS-119, 3-(1-Oxo-4-((3-((2-(4-(4-(quinoxalin-2-yl)-1H-pyrazol-1-yl)piperidin-1-yl)pyrimidin-4-yl)amino)cyclohexyl)amino)isoindolin-2-yl)piperidine-2,6-dione]",> 1000,10 to 100,> 1000,100 to 1000,,,,
"O=C1CCC(N2Cc3cc(CNC(=O)C45CC(C(=O)N6CCC(n7cc(-c8cnc9ccccc9n8)cn7)CC6)(C4)C5)ccc3C2=O)C(=O)N1 (centres unmarked) [GS-120, N-((2-(2,6-dioxopiperidin-3-yl)-1-oxoisoindolin-5-yl)methyl)-3-(4-(4-(quinoxalin-2-yl)-1H-pyrazol-1-yl)piperidine-1-carbonyl)bicyclo[1.1.1]pentane-1-carboxamide]",10 to 100,< 10,10 to 100,< 10,,,,
